{"source": "patent US11352391B2", "about": "“Compositions for inducing urinary voiding and defecation” (Dignify Therapeutics, LLC, priority 2017, dated 2022)", "key": {"[1]": {"molecular_target": "human NK1 Receptor (hNK1R) (Homo sapiens, UniProt P25103)", "sequence (P25103 whole entry)": "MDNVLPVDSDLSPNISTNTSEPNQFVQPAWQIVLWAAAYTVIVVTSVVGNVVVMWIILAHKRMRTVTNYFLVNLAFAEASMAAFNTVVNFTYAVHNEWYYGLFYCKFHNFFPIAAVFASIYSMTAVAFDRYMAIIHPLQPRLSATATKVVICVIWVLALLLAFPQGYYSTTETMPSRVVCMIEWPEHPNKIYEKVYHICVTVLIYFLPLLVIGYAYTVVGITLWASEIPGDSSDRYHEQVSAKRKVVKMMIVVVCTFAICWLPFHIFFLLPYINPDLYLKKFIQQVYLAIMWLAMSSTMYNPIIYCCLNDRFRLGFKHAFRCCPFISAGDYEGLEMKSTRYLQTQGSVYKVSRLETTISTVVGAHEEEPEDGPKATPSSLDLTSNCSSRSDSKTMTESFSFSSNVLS", "experiment": "[3H]-septide radioligand competition binding to human recombinant NK1Rs (CHO-hNK1 membranes)", "conditions": "displacement of 5.0 nM [3H]-septide, CHO-hNK1 membranes; read-out: hNK1 binding Ki", "experimental": "After removal of the supernatant the cell pellet was washed and collected by re-suspension in PBS and centrifugation.\nFrozen pellets were thawed and homogenized in 10 volumes (w/v) of membrane preparation buffer (50 mM HEPES pH 7.4, 1 mM EDTA, 50 μg/mL bacitracin and protease inhibitors) using a Polytron Ultraturrax (twice for 15 s per cycle). […] Protein concentration was determined using BioRad Protein Assay (Milan, Italy) with a BSA standard curve."}, "[2]": {"molecular_target": "recombinant hNK1R expressed in CHO cells (Homo sapiens, UniProt P25103)", "sequence (P25103 whole entry)": "as above", "experiment": "Intracellular calcium mobilization (FLIPR) in CHO-hNK1 cells", "format": "cell-based", "conditions": "calcium mobilization, CHO-hNK1 cells; read-out: hNK1 EC50", "experimental": "CHO-hNK1 and CHO-hNK2 cells were seeded into black walled clear-bottom 384-well plates) at a density of 10,000 and 15,000 cells per well in 50 μL culture media, respectively, and grown overnight at 37° C. in a humidified CO2-incubator. Cells were washed in washing buffer using the EMBLA 384 instrument, leaving 20 μL of buffer per well after the final aspiration. Cells were then incubated at 37° C. with the cytoplasmic Ca2+ indicator Fluo-4 AM (final concentration 1 μM) in assay buffer (20 mM HEPES, 145 mM NaCl, 5 mM KCl, 5.5 mM glucose, 1 mM MgCl2 and 2 mM CaCl2, pH 7.4, 0.05% Pluronic F-127 and 0.1% BSA) containing 2.5 mM probenecid for […] (cell loading). Cells were then washed 3 times in washing buffer (20 mM HEPES, 145 mM NaCl, 5 mM KCl, 5.5 mM glucose, 1 mM MgCl2 and 2 mM CaCl2, pH 7.4 and 2.5 mM probenecid) using the EMBLA 384 instrument, leaving 30 μL of buffer in each well after the last wash. Loaded cell plates were transferred to the FLIPR machine and calcium responses were monitored as described below. A dual read-out FLIPR protocol was used, allowing for characterization of both agonist and antagonist profiles. For quality control, in each compound plate the signal was monitored by evaluating the responses to the reference standards (NKA and Substance P).\nConcentration response curves of compounds were run in duplicate on two different occasions from the same stock solutions. Test solutions were prepared from 10 mM stock solutions in DMSO and 1 μL of each solution was stamped into V-bottom assay plates containing 49 μL assay buffer. The final concentration of DMSO was 0.5% in each well."}, "[3]": {"tested_on": "anesthetized acute spinal cord injured (aSCI) rat", "experiment": "Isovolumetric bladder pressure in anesthetized acute spinal cord injured (aSCI) rats", "format": "in vivo", "experimental": "(§1) Methods: Studies were conducted in acutely spinal transected rats under isovolumetric bladder pressure recording conditions. Acute spinal cord injury (aSCI) is an in vivo model of isolated bladder smooth muscle contraction without reinforcement from micturition reflexes (i.e., myogenic, not neurogenic, contraction). Thus, it can be viewed as a model of severe bladder underactivity.\nAnimal preparation: In vivo studies were performed in anesthetized, acutely spinalized (T8-10 level) rats. Rats were anesthetized with urethane (1.2-1.4 g/kg subcutaneous injection). Surgical procedures were then performed with the addition of isoflurane anesthesia (0.05-1.5% in 02) as needed.\nFor aSCI, the skin and muscle on the dorsal side at the level of the lower thoracic vertebrae were incised and the spinal cord was carefully exposed by a laminectomy and transected at the T8-T10 spinal level. Gelfoam was placed at the incision site and the muscle and skin overlying the vertebrae were closed with wound clips. The spinal cord was cut at least 60 min before starting the experimental protocol. […]\n(§2) Data analysis: Data were examined qualitatively and quantitatively. The mean, standard deviation and standard error of the mean were calculated using MICROSOFT EXCEL."}, "[4]": {"tested_on": "anesthetized acute spinal cord injured (aSCI) rat", "experiment": "Colorectal (bowel) pressure manometry in anesthetized aSCI rats", "format": "in vivo", "conditions": "doses >10 μg/kg SC", "experimental": "as §1\nAnimal preparation: In vivo studies were performed in anesthetized, acutely spinalized (T8-10 level) rats. Rats were anesthetized with urethane (1.2-1.4 g/kg subcutaneous injection). Surgical procedures were then performed with the addition of isoflurane anesthesia (0.05-1.5% in 02) as needed. […]\nBowel Contractility: Colorectal pressure manometry was performed via a latex balloon catheter (length 3-5 cm) inserted (˜4 cm) into the distal rectal/colon region. […] This allowed drug induced changes in colorectal pressure to be monitored. Parameters measured include peak colorectal pressure response, duration of time above baseline activity (in the 1st 5 min after drug administration), area under the curve (measured during the 1st 5 min after drug administration) and the number of contractile events after vehicle and drug administration. […]\nas §2"}, "[5]": {"tested_on": "anesthetized dog", "experiment": "Colorectal pressure manometry in anesthetized dog", "format": "in vivo", "experimental": "(§3) Animal preparation: Naïve beagle dogs were fasted for 12-24 hours and received a warm water enema the night prior to, and the morning of, the experiment to clear the rectum and lower colon of feces. The day of the experiment, a 20 gauge IV catheter (Terumo Surflo) was placed in the cephalic vein for anesthetic induction (propofol, 10 mg/kg; IV) and delivery of IV fluids (5-10 ml/kg/hr) and compounds. The sedated dog was intubated with a 5-6 Fr tracheal tube and was maintained on 2-3% isoflurane via a ventilator (15-25 breaths/min; tidal volume […]) for the remainder of the experiment.\nBowel contractility: For colorectal pressure manometry, an ˜3 inch balloon catheter was inserted into the rectum and secured to the tail with tape. This catheter was connected via a three-way stopcock to a pressure transducer (UTAH MEDICAL PRODUCTS; DelTran II) for pressure recording. Data were recorded using PowerLab/8SP acquisition system using LabChart software (version 7.3.7; ADINSTRUMENTS, Australia). Arterial pressure, ECG, temperature and blood oxygen saturation (spO2) were monitored throughout the experiment (MEDTRONIC LIFEPAK12). Dogs were recovered in a quiet room under veterinary supervision."}, "[6]": {"tested_on": "anesthetized dog", "experiment": "Urine leakage from the bladder in anesthetized dog", "format": "in vivo", "conditions": "IV 3 μg/kg and SC 30 μg/kg, data not shown", "experimental": "as §3"}}, "note": "Where a SMILES comes first, the peptide text is derived from it.", "data": [{"smiles": "CCCC[C@H](NC(=O)[C@H](CC(C)C)N(C)C(=O)CNC(=O)[C@@H](NC(=O)[C@H](Cc1ccccc1)NC(=O)[C@H](CCCNC(=N)N)NC(=O)[C@@H](N)CC(=O)O)C(C)C)C(N)=O", "note": "[Compound B, Asp-Arg-Phe-Val-Gly-(NMe-Leu)-Nle-NH2] (HELM PEPTIDE1{D.R.F.V.G.[meL].[Nle].[am]}$$$$V2.0; N-terminus assumed)", "values": [{"measurement": "Ki", "setting": "[1]", "result": 331, "unit": "nM"}, {"measurement": "EC50", "setting": "[2]", "result": 5.84, "unit": "nM"}, {"measurement": "onset of increase in bladder contraction pressure", "setting": "[3]; SC, anesthetized aSCI rat", "result": "< 2", "unit": "min"}, {"measurement": "bladder activity (peak bladder pressure)", "setting": "[3]; doses >10 μg/kg SC, aSCI rat", "result": "measurable increases in bladder activity"}, {"measurement": "bowel activity (bowel pressure AUC, first 5 min)", "setting": "[4]", "result": "measurable increases in bowel activity"}, {"measurement": "duration of colorectal pressure response", "setting": "[5]; IV bolus (B and E 3 μg/kg; G 3, 30 and 66 ug/kg)", "result": "approximately 7 minutes"}, {"measurement": "duration of colorectal pressure response", "setting": "[5]; SC 30 μg/kg", "result": "over 30 minutes"}, {"measurement": "onset of increase in colorectal pressure", "setting": "[5]; both IV bolus 3 μg/kg and SC 30 μg/kg", "result": "≤ 3", "unit": "min"}, {"measurement": "urine leakage / induction of voiding", "setting": "[6]", "result": "leakage of urine from the bladder"}]}]}
